What was measured:
C. difficile strain 4013 [1] = assay: Hamster CDAD induced by oral C. difficile challenge plus clindamycin; format: in vivo, Syrian hamsters; settings: for animals surviving the study: all doses
Description: In a second study, animals were challenged orally with a bacterial suspension of C. difficile and then administered a single s.c. injection of 100 mg/kg clindamycin. Oral treatment with ramoplanin or vancomycin at 25-50-100 mg/kg or metronidazole at 100-200-400 mg/kg started 24 hours after clindamycin administration and lasted for five days. Hamsters were weighed and observed every 24 hours for evidence of diarrhea or moribund conditions, and the cecal contents were analyzed for C. difficile toxin A (ELISA).

C. difficile [2] = assay: Hamster model of clindamycin-induced C. difficile-associated colitis; format: in vivo, Syrian hamsters; settings: oral 50 mg/kg/day for 5 days; for survival rate: from 24 hours after clindamycin 100 mg/kg s.c., monitored 20 days
Description: To evaluate the in vivo efficacy of ramoplanin in the treatment of C. difficile-associated colitis, ramoplanin was tested in a hamster model of clindamycin (CL)-induced colitis in comparison with both vancomycin and metronidazole. Animals were treated with a single subcutaneous (s.c.) injection of 100 mg/kg clindamycin, and after 24 hours received oral ramoplanin or vancomycin at 50 mg/kg/day for 5 days. Animals were observed daily for the presence or absence of diarrhea. Necropsies were performed on some animals that died during the experiment, and cecal contents were assayed for C. difficile toxin A. Hamsters were monitored for 20 days, and the cumulative mortality during this period was recorded (FIG. 1). […] C. difficile toxin A was always detected in these animals. […] All hamsters that died had gross pathologic evidence of enterocolitis and cecal contents were positive for Toxin A.

C. difficile [3] = assay: Recovery of C. difficile spores or vegetative cells from clindamycin-treated animals; format: in vivo, hamster; settings: after single dose of clindamycin and treatment
Description: In another study, animals were administered a single dose of clindamycin and then treated with either vancomycin or ramoplanin.

C. difficile strain 4013 [4] = assay: Hamster CDAD, different durations of treatment; format: in vivo, Syrian hamsters; settings: ramoplanin 50 mg/kg oral daily for 3 days versus vancomycin 50 mg/kg for 5 days
Description: Hamsters were inoculated with C. difficile on day 0 and then administered 100 mg/kg clindamycin s.c. on day 1. Hamsters received daily oral doses of 50 mg/kg ramoplanin or vancomycin for 3 or 5 days starting on day 2.

[5] = Multiple oral dose study in healthy male volunteers: absorption and fecal concentrations; format: in vivo, human
Description: Healthy male volunteers were administered 200, 400, or 800 mg ramoplanin twice-a-day, for ten consecutive days. The predetermined dose was reconstituted in 5 mL water per vial, mixed with 50 mL of sweetened, aromatized solution, and immediately administered orally to the subjects.
No absorption from the human gastrointestinal tract was observed.

[6] = test system: Gram-negative bacteria (enteric bacteria and Bacteroides spp.) or yeast; assay: Multiple dose study, antibacterial activity on stool microflora: Gram-negative bacteria and yeast; format: in vivo, human
Description: (§1) The antibacterial activity of ramoplanin on the stool microflora was assessed in a subset of the subjects. Microbial concentrations (i.e., the number of organisms per gram of fecal matter) were determined at the following time points: Day −4 (pre-treatment), Days 4 and 10 (treatment), and Days 7 and 24 (follow-up). Tolerability and absorption were also investigated.

[7] = In vitro interaction of ramoplanin with human intestinal contents
Description: The in vitro interaction of ramoplanin with human intestinal contents was studied. […] The binding and the subsequent release of ramoplanin from feces would likely result in long-lasting concentrations in the intestinal tract.

VRE = assay: Multiple dose study in asymptomatic carriers of intestinal VRE; format: in vivo, human; settings: for patients remaining VRE free: Day 14 (seven days after cessation)
Description: Patients identified as asymptomatic carriers of VRE were administered placebo or one of two dosages (100 mg, 400 mg) of ramoplanin BID (twice daily) for seven days. Patients were assessed by rectal swab on Days 7, 14, and 21 to determine the presence or absence of VRE. On Days 45 and 90, stool samples were analyzed for long-term effects of ramoplanin on the recurrence of, or reinfection with, VRE. All VRE isolates were tested for susceptibility to ramoplanin.

Clostridium spp. = assay: Multiple dose study, antibacterial activity on stool microflora: Clostridium spp.; format: in vivo, human
Description: as §1

[8] = Single oral dose study in healthy male volunteers: absorption and fecal recovery; format: in vivo, human
Description: The absorption, tolerability, and recovery of ramoplanin following single dose oral administration were investigated in male volunteers. Ramoplanin was administered as an aqueous solution at a dose of 100, 200, 500, or 1000 mg to fasting subjects. Serum samples were obtained prior to drug administration of ramoplanin and 0.5, 1, 2, 3, 6, 9, 12, 24, 48, 72, and 96 hours after treatment. Urine samples were collected prior to administration of ramoplanin and over the periods 0-3,3-6, 6-12, 12-24, 24-48, 48-72, and 72-96 hours after dosing. Fecal samples were collected prior to dosing and over the periods 0-16 (Day 1), 16-40 (Day 2), 40-64 (Day 3), 64-88 (Day 4), and 88-96 (Day 5) hours after dosing. A microbiological assay employing Bacillis subtilis ATCC 6633 as the test organism was used to determine ramoplanin concentrations in serum, urine, and feces. The limits of quantitation for this assay were 0.02 μg/mL in serum, 0.012 μg/mL in urine, and 3 μg/g in feces. Tolerability was assessed on the basis of clinical signs and symptoms and the results of blood and urine laboratory tests.

[9] = test system: Gram-positive bacteria (staphylococci, streptococci, enterococci); assay: Multiple dose study, antibacterial activity on stool microflora: Gram-positive bacteria; format: in vivo, human
Description: as §1

Cc1ncc([N+](=O)[O-])n1CCO [metronidazole]
animals surviving the study (C. difficile strain 4013 [1]; oral for five days): No animals treated with vancomycin or metronidazole survived the study
prolonged survival (C. difficile strain 4013 [1]; oral for five days, ramoplanin or vancomycin 25-50-100 mg/kg, metronidazole 100-200-400 mg/kg): 9 days

CN[C@H](CC(C)C)C(=O)N[C@H]1C(=O)N[C@@H](CC(N)=O)C(=O)N[C@H]2C(=O)N[C@H]3C(=O)N[C@H](C(=O)N[C@H](C(=O)O)c4cc(O)cc(O)c4-c4cc3ccc4O)[C@H](O)c3ccc(c(Cl)c3)Oc3cc2cc(c3O[C@@H]2O[C@H](CO)[C@@H](O)[C@H](O)[C@H]2O[C@H]2C[C@](C)(N)[C@H](O)[C@H](C)O2)Oc2ccc(cc2Cl)[C@H]1O [vancomycin, reference compound]
prolonging survival and protecting animals from death (C. difficile [2]): highly effective
survival rate (C. difficile [2]): 20%
animals surviving the study (C. difficile strain 4013 [1]; oral for five days): No animals treated with vancomycin or metronidazole survived the study
recovery of C. difficile spores or vegetative cells (C. difficile [3]): C. difficile spores were recovered from some of the animals

ramoplanin
prolonging survival and protecting animals from death (C. difficile [2]): highly effective
survival rate (C. difficile [2]): 80%
efficacy by duration of treatment (C. difficile strain 4013 [4]): more effective than vancomycin administration for 5 days
survival at the end of observation period (C. difficile strain 4013 [1]; 100 mg/kg oral for five days): 20%
time of death compared to vancomycin-treated animals (C. difficile strain 4013 [1]; oral for five days): delayed compared to that of vancomycin-treated animals
absorption from the human gastrointestinal tract ([5]; 200, 400 or 800 mg twice-a-day for ten days): No absorption
urine levels ([5]; Day 1 and 5 and pooled urine up to 72-96 after the last dose): No levels were found in urine
average fecal concentration ([5]; Day 3, 200 mg twice-a-day): 827 µg/g
average fecal concentration ([5]; Day 3, 400 mg twice-a-day): 1742 µg/g
average fecal concentration ([5]; Day 3, 800 mg twice-a-day): 1901 µg/g
average fecal concentration ([5]; Day 10, 200 mg twice-a-day): 949 µg/g
average fecal concentration ([5]; Day 10, 400 mg twice-a-day): 1417 µg/g
average fecal concentration ([5]; Day 10, 800 mg twice-a-day): 2647 µg/g
serum levels ([5]; Days 1, 5 and 10, hour 0.5, 1, 2, 3, 6, 9 and 12 after the morning dose): no serum levels of ramoplanin were detected
fecal concentrations post-treatment ([5]; after ten days of twice-a-day dosing): remained detectable in some subjects four days post-treatment
cumulative recovery in feces, of the administered dose ([5]; up to Day 4 post-treatment): 25%
activity against Gram-negative flora in feces ([6]; 200, 400 or 800 mg BID for 10 days): not effective
effect on Gram-negative bacteria (enteric bacteria and Bacteroides spp.) or yeast of the stool ([6]; multiple dose, ten days): no effect
recovery of C. difficile spores or vegetative cells (C. difficile [3]): No C. difficile spores or vegetative cells were recovered
binding to solid components of feces [7]: bind reversibly to solid components of feces
microbiological activity in feces [7]: microbiologically active in feces
suppression of intestinal VRE (primary efficacy variable) (VRE; 100 mg or 400 mg BID for seven days): effectively suppressed intestinal VRE
patients with no detectable VRE (VRE; Day 7, 100 mg BID for seven days, 17 of 21 patients): 81.0%
patients with no detectable VRE (VRE; Day 7, 400 mg BID for seven days, 18 of 20 patients): 90.0%
patients remaining VRE free (VRE; 100 mg BID, 6 of 21 patients): 28.6%
patients remaining VRE free (VRE; 400 mg BID, 7 of 17 patients): 41.2%
number of VRE-free patients (VRE; Day 21): comparable among all treatment groups
clostridial load in the two subjects carrying ramoplanin- and vancomycin-resistant Clostridium spp. (C. rectum and C. bejerinckii) (Clostridium spp.; multiple dose, ten days): no variation in the clostridial load
subjects with Clostridium spp. concentration reduced below detectable levels (Clostridium spp.; multiple dose, ten days): 10 of 12
ramoplanin- or vancomycin-resistant C. difficile strains in stool (Clostridium spp.; pre- or post-treatment): No ramoplanin- or vancomycin-resistant strain of C. difficile was detected
mean cumulative recovery in feces, of the administered dose ([8]; 100 mg single oral dose): 67.7%
mean maximum concentration in feces ([8]; 100 mg single oral dose): 214 µg/g
range of cumulative recovery in feces ([8]; 100 mg single oral dose): 55.7-84%
range of maximum concentrations in feces ([8]; 100 mg single oral dose): 148 to 278 µg/g
mean cumulative recovery in feces, of the administered dose ([8]; 200 mg single oral dose): 48.5%
mean maximum concentration in feces ([8]; 200 mg single oral dose): 287 µg/g
range of cumulative recovery in feces ([8]; 200 mg single oral dose): 39.3-56.5%
range of maximum concentrations in feces ([8]; 200 mg single oral dose): 164 to 454 µg/g
mean cumulative recovery in feces, of the administered dose ([8]; 500 mg single oral dose): 52.8%
mean maximum concentration in feces ([8]; 500 mg single oral dose): 1655 µg/g
range of cumulative recovery in feces ([8]; 500 mg single oral dose): 41.3-79.6%
range of maximum concentrations in feces ([8]; 500 mg single oral dose): 737 to 3316 µg/g
mean cumulative recovery in feces, of the administered dose ([8]; 1000 mg single oral dose): 46.4%
mean maximum concentration in feces ([8]; 1000 mg single oral dose): 1835 µg/g
range of cumulative recovery in feces ([8]; 1000 mg single oral dose): 39.9-58.4%
range of maximum concentrations in feces ([8]; 1000 mg single oral dose): 1336 to 3154 µg/g
subjects with ramoplanin still detectable in feces ([8]; fourth day of study, single oral dose): 17 of 24
time of maximum concentration and maximum percentage recovery in feces ([8]; single oral dose, not dose dependent): Day 2
detection in serum/plasma or urine ([8]; single oral doses up to 1000 mg and multiple oral doses 200, 400 or 800 mg BID for 10 days, bioassay and HPLC): not detected
Gram-positive colony counts in feces ([9]; all doses (200, 400 or 800 mg BID), during the 10-day regimen): undetectable levels
concentrations of staphylococci, streptococci and enterococci in stool ([9]; by Day 10, all subjects): below the level of detection
effect on Gram-positive bacteria of the stool ([9]; first measurement on Day 4): marked effect
